# Source: US20260176266A1, “PIPERIDINOPYRIMIDINE DERIVATIVE, PREPARATION METHOD THEREFOR AND USE THEREOF IN MEDICINE” (TUOJIE BIOTECH (SHANGHAI) CO., LTD., priority 2022, published 2026)
# Legend:
# [1] = test system: HCC1806 breast cancer cells; experiment: Inhibitory activity against tumor cells, CellTiter-Glo: HCC1806; type: cell-based; conditions: Homo sapiens, 168 h, HCC1806, 7 days treatment
# Protocol: (§1) MCF7 (ATCC #HTB-22) and T47D (ATCC #HTB-133) breast cancer cells and PANC-1 (ATCC #CRL-1469) pancreatic cancer cells were purchased from ATCC. MDA-MB-231 (Cobioer #CBP60382), HCC1806 (Cobioer #CBP60373), and MDA-MB-468 (Cobioer #CBP60387) breast cancer cells, HCT-116 (Cobioer #CBP60028) colorectal cancer cells, and OCI-AML-3 (Cobioer #CBP60817) and MV-4-11 (Cobioer #CBP60522) leukemia cells were purchased from Nanjing Cobioer Biosciences Co., Ltd.
# (§2) OCI-AML-3 was cultured in RPMI 1640 medium with 20% FBS; HCC1806 and T47D were cultured in RPMI 1640 medium with 10% FBS; MCF7, MDA-MB-231, MDA-MB-468, and PANC-1 were cultured in DMEM medium with 10% FBS; MV-4-11 was cultured in IMDM medium with 20% FBS; HCT-116 was cultured in MC′5A medium with 10% FBS.
# (§3) Palbociclib-resistant cells were constructed on MCF7 parent cells, designated MCF7 Palbo-R, and the culture conditions were consistent with those of the parent cells. All tumor cells were cultured in a cell incubator at 37° C. with 5% CO2. The cells were seeded at corresponding cell densities (600 cells/well for MDA-MB-231; 500 cells/well for MDA-MB-468, PANC-1, and HCT-116; 200 cells/well for MCF7 and HCC1806; 800 cells/well for MCF7 Palbo-R; 3000 cells/well for OCI-AML-3 and MV-4-11) in 384-well plates and cultured overnight in the incubator. On the second day, the cells were treated with compounds. The maximum compound concentration was 10 μM and was 3-fold diluted to obtain 9 concentrations, each tested in duplicate, and the final concentration of DMSO was 0.1%. The cells continued to be cultured in the incubator, with MDA-MB-231, PANC-1, MDA-MB-468, OCI-AML-3, and MV-4-11 being treated with drugs for 5 days and HCC1806, MCF7, MCF7 Palbo-R, and HCT116 being treated with drugs for 7 days. Cell viability was tested using the Celltiter Glo assay kit (Promega), and the testing method was consistent with the operational method provided by the kit. Readings were taken using an Envision multimode microplate reader. Data were processed using GraphPad Prism 8, and IC50 was calculated. […]
# [2] = test system: MDA-MB-468 breast cancer cells; experiment: Inhibitory activity against tumor cells, CellTiter-Glo: MDA-MB-468; type: cell-based; conditions: Homo sapiens, 120 h, MDA-MB-468, 5 days treatment
# Protocol: as §1, §2, §3
# [3] = target: CDK7/Cyclin H/MAT1 (Homo sapiens, UniProt P50613); experiment: ADP-Glo kinase assay, CDK7; type: biochemical; conditions: for IC50: 80 nM CDK7/Cyclin H/MAT1, 70 μM ATP (Km), MBP, 60 min, read-out: inhibitory activity (IC50, nM) CDK7; for selectivity for CDK2/CDK7 compared with Janssen-01: from IC50 of Table 6, statement in words
# Protocol: (§4) The ADP-Glo kinase assay was used for testing the activity of CDKs. The compounds were diluted in 384-well plates using Echo. The starting concentration was 10 μM and was 3-fold diluted to obtain 10 concentration points, each tested in duplicate, and the final concentration of DMSO in the assay system was 1%. CDK solutions (the final concentrations were 16.5 nM CDK1/CyclinB, 1 nM CDK2/CyclinE1, 16.3 nM CDK4/CyclinD1, 11.5 nM CDK5/p25, 15.7 nM CDK6/CyclinD3, 80 nM CDK7/Cyclin H/MAT1, 15.3 nM CDK9/Cyclin T1, and 150 nM CDK12/CyclinK) prepared in assay buffer were added at 2.5 μL, and the enzymes and compounds were pre-incubated at room temperature for 10 min. ATP (the concentration was Km) & substrate solutions (20 μM ATP & 0.1 mg/mL Histone H1 Protein for CDK1/CyclinB, 15 μM ATP & 0.1 mg/mL Histone H1 Protein for CDK2/CyclinE1, 200 μM ATP & 0.2 mg/mL DYRKtide peptide for CDK4/CyclinD1, 10 μM ATP & 0.1 mg/mL Histone H1 Protein for CDK5/p25, 200 μM ATP & 0.1 mg/mL Histone H1 Protein for CDK6/CyclinD3, 70 μM ATP & 0.2 mg/mL MBP for CDK7/Cyclin H/MAT1, 60 μM ATP & 0.2 mg/mL PDKtide for CDK9/Cyclin T1, and 20 μM ATP & 80 μM pS7-CTD peptide for CDK12/CyclinK) prepared in assay buffer were added at 2.5 μL. After thorough mixing, the plates were incubated at room temperature, with CDK1/4/9/12/13 incubated for 120 min and CDK2/5/6/7 incubated for 60 min. ADP-Glo reagents were added at 4 μL, and the plates were incubated at room temperature for 40 min. Kinase detection reagents were added at 8 μL, and the plates were incubated at room temperature for 40 min. Readings were taken using an Envision multimode microplate reader. Data were processed using GraphPad Prism 8, and IC50 was calculated.
# [formula] • X: the logarithm of the compound concentration; Y: % inhibition.
# [4] = test system: OCI-AML-3 leukemia cells; experiment: Inhibitory activity against tumor cells, CellTiter-Glo: OCI-AML-3; type: cell-based; conditions: Homo sapiens, 120 h, OCI-AML-3, 5 days treatment
# Protocol: as §1, §2, §3
# [5] = test system: MDA-MB-231 breast cancer cells; experiment: Inhibitory activity against tumor cells, CellTiter-Glo: MDA-MB-231; type: cell-based; conditions: Homo sapiens, 120 h, MDA-MB-231, 5 days treatment
# Protocol: as §1, §2, §3
# [6] = test system: MCF7 breast cancer cells; experiment: Inhibitory activity against tumor cells, CellTiter-Glo: MCF7; type: cell-based; conditions: Homo sapiens, 168 h, MCF7, 7 days treatment
# Protocol: as §1, §2, §3
# [7] = test system: T47D breast cancer cells; experiment: Inhibitory activity against tumor cells, CellTiter-Glo: T47D; type: cell-based; conditions: Homo sapiens
# Protocol: as §1, §2
# Palbociclib-resistant cells were constructed on MCF7 parent cells, designated MCF7 Palbo-R, and the culture conditions were consistent with those of the parent cells. All tumor cells were cultured in a cell incubator at 37° C. with 5% CO2. The cells were seeded at corresponding cell densities (600 cells/well for MDA-MB-231; 500 cells/well for MDA-MB-468, PANC-1, and HCT-116; 200 cells/well for MCF7 and HCC1806; 800 cells/well for MCF7 Palbo-R; 3000 cells/well for OCI-AML-3 and MV-4-11) in 384-well plates and cultured overnight in the incubator. On the second day, the cells were treated with compounds. The maximum compound concentration was 10 μM and was 3-fold diluted to obtain 9 concentrations, each tested in duplicate, and the final concentration of DMSO was 0.1%. The cells continued to be cultured in the incubator, with MDA-MB-231, PANC-1, MDA-MB-468, OCI-AML-3, and MV-4-11 being treated with drugs for 5 days and HCC1806, MCF7, MCF7 Palbo-R, and HCT116 being treated with drugs for 7 days. Cell viability was tested using the Celltiter Glo assay kit (Promega), and the testing method was consistent with the operational method provided by the kit. Readings were taken using an Envision multimode microplate reader. Data were processed using GraphPad Prism 8, and IC50 was calculated.
# Y=Bottom+(Top−Bottom)/(1+10^((Log IC50−X)×HillSlope)). Calculation formula: • X: the logarithm of the compound concentration; Y: % inhibition.
# [8] = test system: PANC-1 pancreatic cancer cells; experiment: Inhibitory activity against tumor cells, CellTiter-Glo: PANC-1; type: cell-based; conditions: Homo sapiens, 120 h, PANC-1, 5 days treatment
# Protocol: as §1, §2, §3
# [9] = target: CDK9/Cyclin T1 (Homo sapiens, UniProt P50750); experiment: ADP-Glo kinase assay, CDK9; type: biochemical; conditions: 15.3 nM CDK9/Cyclin T1, 60 μM ATP (Km), PDKtide, 120 min; read-out: inhibitory activity (IC50, nM) CDK9
# Protocol: as §4, with “After thorough mixing, the plates were incubated at room temperature, with CDK1/4/9/12/13 incubated for 120 min and CDK2/5/6/7 incubated for 60 min. ADP-Glo reagents were added at 4 μL, and the plates were incubated at room temperature for 40 min. Kinase detection reagents were added at 8 μL, and the plates were incubated at room temperature for 40 min.” left out, “calculated. […]” for “calculated.”
# [10] = test system: MV-4-11 leukemia cells; experiment: Inhibitory activity against tumor cells, CellTiter-Glo: MV-4-11; type: cell-based; conditions: Homo sapiens, MV4-11, 120 h, MV-4-11, 5 days treatment
# Protocol: as §1, §2, §3
# [11] = target: CDK4/CyclinD1 (Homo sapiens, UniProt P11802); experiment: ADP-Glo kinase assay, CDK4; type: biochemical; conditions: 16.3 nM CDK4/CyclinD1, 200 μM ATP (Km), DYRKtide peptide, 120 min; read-out: inhibitory activity (IC50, nM) CDK4
# Protocol: as §4, with “After thorough mixing, the plates were incubated at room temperature, with CDK1/4/9/12/13 incubated for 120 min and CDK2/5/6/7 incubated for 60 min. ADP-Glo reagents were added at 4 μL, and the plates were incubated at room temperature for 40 min. Kinase detection reagents were added at 8 μL, and the plates were incubated at room temperature for 40 min.” left out, “calculated. […]” for “calculated.”
# Chain of CDK7/Cyclin H/MAT1 (P50613 whole entry, species assumed): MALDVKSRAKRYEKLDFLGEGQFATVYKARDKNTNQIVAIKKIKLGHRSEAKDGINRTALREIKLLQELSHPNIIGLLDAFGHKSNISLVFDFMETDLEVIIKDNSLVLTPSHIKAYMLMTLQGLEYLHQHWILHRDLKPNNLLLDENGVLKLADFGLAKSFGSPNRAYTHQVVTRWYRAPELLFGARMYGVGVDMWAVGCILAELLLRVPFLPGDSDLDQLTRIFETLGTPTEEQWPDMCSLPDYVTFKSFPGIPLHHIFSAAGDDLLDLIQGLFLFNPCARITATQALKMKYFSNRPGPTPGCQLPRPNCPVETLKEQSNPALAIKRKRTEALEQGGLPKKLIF
# Chain of CDK7/Cyclin H/MAT1 (P51946 whole entry partner, species assumed): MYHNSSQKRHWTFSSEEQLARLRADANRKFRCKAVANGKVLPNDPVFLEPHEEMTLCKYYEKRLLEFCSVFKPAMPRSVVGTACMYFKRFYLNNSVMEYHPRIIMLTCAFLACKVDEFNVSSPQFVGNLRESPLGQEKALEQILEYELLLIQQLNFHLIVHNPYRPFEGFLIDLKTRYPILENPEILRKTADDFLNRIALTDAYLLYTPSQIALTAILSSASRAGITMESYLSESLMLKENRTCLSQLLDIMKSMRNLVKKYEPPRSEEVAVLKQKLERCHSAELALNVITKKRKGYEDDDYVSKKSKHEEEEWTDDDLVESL
# Chain of CDK7/Cyclin H/MAT1 (P51948 whole entry partner, species assumed): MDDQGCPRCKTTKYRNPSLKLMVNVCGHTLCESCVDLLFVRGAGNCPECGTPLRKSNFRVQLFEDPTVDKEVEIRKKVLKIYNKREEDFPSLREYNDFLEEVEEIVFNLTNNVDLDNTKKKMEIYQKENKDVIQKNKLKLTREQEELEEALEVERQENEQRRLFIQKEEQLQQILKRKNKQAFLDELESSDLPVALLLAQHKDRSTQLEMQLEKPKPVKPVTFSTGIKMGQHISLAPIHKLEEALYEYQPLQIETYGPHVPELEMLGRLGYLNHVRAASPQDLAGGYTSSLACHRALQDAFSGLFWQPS
# Chain of CDK4/CyclinD1 (P11802 whole entry, species assumed): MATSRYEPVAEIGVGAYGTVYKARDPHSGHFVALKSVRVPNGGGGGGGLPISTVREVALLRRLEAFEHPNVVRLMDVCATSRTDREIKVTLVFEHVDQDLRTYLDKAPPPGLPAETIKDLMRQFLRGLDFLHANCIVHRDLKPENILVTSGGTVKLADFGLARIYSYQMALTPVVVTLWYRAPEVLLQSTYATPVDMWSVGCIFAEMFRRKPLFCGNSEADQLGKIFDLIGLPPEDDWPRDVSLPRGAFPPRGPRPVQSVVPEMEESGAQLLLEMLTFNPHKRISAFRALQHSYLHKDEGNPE
# Chain of CDK4/CyclinD1 (P24385 whole entry partner, species assumed): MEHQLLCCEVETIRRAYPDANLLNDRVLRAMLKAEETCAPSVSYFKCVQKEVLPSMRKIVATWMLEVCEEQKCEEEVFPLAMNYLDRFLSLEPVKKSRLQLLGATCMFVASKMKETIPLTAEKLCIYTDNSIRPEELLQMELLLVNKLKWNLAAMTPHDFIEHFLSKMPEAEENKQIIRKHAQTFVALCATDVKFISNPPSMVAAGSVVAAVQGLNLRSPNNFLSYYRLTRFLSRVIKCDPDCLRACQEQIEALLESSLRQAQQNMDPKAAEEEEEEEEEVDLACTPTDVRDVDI
# Chain of CDK9/Cyclin T1 (P50750 whole entry, species assumed): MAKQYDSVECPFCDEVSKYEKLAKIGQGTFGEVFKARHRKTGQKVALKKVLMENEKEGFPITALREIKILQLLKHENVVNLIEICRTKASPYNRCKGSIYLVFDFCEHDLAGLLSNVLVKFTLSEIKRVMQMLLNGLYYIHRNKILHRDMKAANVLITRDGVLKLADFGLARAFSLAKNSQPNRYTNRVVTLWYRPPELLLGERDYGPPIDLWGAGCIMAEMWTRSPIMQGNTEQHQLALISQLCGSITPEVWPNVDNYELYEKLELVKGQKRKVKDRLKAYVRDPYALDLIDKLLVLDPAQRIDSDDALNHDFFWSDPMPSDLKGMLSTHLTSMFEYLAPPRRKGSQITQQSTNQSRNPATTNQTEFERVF
# Chain of CDK9/Cyclin T1 (O60563 whole entry partner, species assumed): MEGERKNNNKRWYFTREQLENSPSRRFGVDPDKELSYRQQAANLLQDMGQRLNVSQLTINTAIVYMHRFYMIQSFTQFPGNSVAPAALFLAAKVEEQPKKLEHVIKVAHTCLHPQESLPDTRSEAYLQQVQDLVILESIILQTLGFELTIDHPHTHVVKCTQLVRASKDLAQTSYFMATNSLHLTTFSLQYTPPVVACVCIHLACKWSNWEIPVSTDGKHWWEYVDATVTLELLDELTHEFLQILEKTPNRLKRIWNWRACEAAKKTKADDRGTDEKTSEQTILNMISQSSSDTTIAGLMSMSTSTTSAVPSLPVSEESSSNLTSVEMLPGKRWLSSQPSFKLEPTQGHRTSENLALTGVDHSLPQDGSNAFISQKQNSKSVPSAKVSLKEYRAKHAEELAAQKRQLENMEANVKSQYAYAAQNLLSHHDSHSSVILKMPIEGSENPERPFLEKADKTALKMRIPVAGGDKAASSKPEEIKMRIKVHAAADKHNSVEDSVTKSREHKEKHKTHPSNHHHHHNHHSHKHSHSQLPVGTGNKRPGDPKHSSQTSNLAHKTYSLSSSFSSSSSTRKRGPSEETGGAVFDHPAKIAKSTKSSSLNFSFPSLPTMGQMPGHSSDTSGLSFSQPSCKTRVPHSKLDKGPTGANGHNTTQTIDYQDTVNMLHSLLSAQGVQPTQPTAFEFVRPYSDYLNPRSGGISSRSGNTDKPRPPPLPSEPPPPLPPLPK
IC50 [1] [nM],IC50 [2] [nM],IC50 [3] [nM],IC50 [4] [nM],IC50 [5] [nM],IC50 [6] [nM],IC50 [7] [nM],IC50 [8] [nM],IC50 [9] [nM],IC50 [10] [nM],IC50 [11] [nM],Compound,selectivity for CDK2/CDK7 compared with Janssen-01 [3]
28.6,30,21.9,33.2,25.4,14.6,31,45.9,1580,18.2,> 10000,"C[C@@H]1Cc2cnc(NCc3ccn(C)n3)nc2CN1C(=O)N[C@H](CN(C)C)c1ccccc1 [Example 2, (R)—N—((S)-2-(Dimethylamino)-1-phenylethyl)-6-methyl-2-(((1-methyl-TH-pyrazol-3-yl)methyl)amino)-5,8-dihydropyrido[3,4-d]pyrimidine-7(6H)-carboxamide]",significantly better selectivity for CDK2/CDK7 than Janssen-01
23.7,21.2,28.4,33.4,23.2,11.8,22.2,17.7,4270,19.1,> 10000,"C[C@H](Nc1ncc2c(n1)CN(C(=O)N[C@H](CN(C)C)c1ccccc1)[C@H](C)C2)c1ccccn1 [Example 6, (R)—N—((S)-2-(Dimethylamino)-1-phenylethyl)-6-methyl-2-(((S)-1-(pyridin-2-yl)ethyl)amino)-5,8-dihydropyrido[3,4-d]pyrimidine-7(6H)-carboxamide]",significantly better selectivity for CDK2/CDK7 than Janssen-01
